Test results as given in patent US9340590B2 (priority 2011, dated 2016).
Like-named read-outs stand apart in the source and are kept apart here. Positions of bridges follow the written chain, without caps; N, C: chain ends. Residues, ends and D or L forms follow the SMILES beside them.

Columns and labels:
Experiment in all cases: cell-based
hNav1.3 = hNav1.3 (Homo sapiens, UniProt Q9NY46); conditions: IonWorks Quattro, read-out: IWQ Use Nav1.3
hNav1.7 = hNav1.7 (Homo sapiens, UniProt Q15858); format: cell-based
hNav1.5 = hNav1.5 (Homo sapiens, UniProt Q14524)
[1] = Table 23, IonWorks Quattro, use, […], read-out: IWQ Use Nav1.5

Chain of hNav1.7 (Q15858 whole entry, looked up): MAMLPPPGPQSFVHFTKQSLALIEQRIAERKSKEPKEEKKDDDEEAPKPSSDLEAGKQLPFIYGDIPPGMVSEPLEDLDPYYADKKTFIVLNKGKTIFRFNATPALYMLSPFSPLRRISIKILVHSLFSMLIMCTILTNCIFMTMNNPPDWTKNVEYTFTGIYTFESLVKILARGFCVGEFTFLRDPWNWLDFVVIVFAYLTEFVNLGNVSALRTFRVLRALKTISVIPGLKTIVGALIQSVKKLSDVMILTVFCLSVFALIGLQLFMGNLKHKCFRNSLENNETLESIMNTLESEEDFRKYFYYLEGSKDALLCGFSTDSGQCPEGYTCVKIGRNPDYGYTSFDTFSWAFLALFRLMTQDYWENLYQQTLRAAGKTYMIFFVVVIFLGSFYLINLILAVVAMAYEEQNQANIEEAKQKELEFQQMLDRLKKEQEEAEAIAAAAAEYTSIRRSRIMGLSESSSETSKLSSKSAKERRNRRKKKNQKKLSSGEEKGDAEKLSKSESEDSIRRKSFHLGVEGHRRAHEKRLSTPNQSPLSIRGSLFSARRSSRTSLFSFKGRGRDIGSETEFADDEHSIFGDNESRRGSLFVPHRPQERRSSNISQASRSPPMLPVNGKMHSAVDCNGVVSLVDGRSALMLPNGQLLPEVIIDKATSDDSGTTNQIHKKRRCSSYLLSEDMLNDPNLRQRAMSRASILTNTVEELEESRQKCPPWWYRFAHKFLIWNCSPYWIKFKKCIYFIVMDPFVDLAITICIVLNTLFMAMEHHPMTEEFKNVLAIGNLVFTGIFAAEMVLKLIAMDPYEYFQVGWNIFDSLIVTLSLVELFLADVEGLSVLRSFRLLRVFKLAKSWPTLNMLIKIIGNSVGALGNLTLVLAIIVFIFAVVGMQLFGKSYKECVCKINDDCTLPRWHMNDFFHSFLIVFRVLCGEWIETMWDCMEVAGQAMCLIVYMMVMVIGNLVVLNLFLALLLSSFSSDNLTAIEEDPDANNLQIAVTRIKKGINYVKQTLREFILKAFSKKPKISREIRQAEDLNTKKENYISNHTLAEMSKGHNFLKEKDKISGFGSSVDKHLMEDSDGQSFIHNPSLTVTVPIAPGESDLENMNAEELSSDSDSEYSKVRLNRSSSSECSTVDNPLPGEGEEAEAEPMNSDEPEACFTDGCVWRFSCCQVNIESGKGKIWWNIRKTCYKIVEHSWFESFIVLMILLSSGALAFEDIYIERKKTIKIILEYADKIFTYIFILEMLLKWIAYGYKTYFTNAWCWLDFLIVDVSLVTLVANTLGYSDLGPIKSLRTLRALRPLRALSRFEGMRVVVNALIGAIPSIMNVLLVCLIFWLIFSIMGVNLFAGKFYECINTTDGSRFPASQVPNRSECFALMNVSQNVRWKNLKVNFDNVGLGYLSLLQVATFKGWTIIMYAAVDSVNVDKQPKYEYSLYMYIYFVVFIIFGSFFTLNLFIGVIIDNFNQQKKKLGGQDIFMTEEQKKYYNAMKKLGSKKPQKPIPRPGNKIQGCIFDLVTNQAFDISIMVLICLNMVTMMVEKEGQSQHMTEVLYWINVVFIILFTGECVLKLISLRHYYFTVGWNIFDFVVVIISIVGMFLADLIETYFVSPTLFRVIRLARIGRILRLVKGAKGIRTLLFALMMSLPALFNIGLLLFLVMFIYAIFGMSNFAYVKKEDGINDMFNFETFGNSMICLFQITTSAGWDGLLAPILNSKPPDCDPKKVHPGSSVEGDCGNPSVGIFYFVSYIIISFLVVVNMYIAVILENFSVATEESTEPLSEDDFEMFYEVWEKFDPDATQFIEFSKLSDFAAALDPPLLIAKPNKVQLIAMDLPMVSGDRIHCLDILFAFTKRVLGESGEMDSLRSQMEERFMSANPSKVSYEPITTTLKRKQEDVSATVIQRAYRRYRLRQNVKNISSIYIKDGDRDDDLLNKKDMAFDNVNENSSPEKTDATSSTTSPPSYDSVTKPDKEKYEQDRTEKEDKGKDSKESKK
Chain of hNav1.5 (Q14524 whole entry, looked up): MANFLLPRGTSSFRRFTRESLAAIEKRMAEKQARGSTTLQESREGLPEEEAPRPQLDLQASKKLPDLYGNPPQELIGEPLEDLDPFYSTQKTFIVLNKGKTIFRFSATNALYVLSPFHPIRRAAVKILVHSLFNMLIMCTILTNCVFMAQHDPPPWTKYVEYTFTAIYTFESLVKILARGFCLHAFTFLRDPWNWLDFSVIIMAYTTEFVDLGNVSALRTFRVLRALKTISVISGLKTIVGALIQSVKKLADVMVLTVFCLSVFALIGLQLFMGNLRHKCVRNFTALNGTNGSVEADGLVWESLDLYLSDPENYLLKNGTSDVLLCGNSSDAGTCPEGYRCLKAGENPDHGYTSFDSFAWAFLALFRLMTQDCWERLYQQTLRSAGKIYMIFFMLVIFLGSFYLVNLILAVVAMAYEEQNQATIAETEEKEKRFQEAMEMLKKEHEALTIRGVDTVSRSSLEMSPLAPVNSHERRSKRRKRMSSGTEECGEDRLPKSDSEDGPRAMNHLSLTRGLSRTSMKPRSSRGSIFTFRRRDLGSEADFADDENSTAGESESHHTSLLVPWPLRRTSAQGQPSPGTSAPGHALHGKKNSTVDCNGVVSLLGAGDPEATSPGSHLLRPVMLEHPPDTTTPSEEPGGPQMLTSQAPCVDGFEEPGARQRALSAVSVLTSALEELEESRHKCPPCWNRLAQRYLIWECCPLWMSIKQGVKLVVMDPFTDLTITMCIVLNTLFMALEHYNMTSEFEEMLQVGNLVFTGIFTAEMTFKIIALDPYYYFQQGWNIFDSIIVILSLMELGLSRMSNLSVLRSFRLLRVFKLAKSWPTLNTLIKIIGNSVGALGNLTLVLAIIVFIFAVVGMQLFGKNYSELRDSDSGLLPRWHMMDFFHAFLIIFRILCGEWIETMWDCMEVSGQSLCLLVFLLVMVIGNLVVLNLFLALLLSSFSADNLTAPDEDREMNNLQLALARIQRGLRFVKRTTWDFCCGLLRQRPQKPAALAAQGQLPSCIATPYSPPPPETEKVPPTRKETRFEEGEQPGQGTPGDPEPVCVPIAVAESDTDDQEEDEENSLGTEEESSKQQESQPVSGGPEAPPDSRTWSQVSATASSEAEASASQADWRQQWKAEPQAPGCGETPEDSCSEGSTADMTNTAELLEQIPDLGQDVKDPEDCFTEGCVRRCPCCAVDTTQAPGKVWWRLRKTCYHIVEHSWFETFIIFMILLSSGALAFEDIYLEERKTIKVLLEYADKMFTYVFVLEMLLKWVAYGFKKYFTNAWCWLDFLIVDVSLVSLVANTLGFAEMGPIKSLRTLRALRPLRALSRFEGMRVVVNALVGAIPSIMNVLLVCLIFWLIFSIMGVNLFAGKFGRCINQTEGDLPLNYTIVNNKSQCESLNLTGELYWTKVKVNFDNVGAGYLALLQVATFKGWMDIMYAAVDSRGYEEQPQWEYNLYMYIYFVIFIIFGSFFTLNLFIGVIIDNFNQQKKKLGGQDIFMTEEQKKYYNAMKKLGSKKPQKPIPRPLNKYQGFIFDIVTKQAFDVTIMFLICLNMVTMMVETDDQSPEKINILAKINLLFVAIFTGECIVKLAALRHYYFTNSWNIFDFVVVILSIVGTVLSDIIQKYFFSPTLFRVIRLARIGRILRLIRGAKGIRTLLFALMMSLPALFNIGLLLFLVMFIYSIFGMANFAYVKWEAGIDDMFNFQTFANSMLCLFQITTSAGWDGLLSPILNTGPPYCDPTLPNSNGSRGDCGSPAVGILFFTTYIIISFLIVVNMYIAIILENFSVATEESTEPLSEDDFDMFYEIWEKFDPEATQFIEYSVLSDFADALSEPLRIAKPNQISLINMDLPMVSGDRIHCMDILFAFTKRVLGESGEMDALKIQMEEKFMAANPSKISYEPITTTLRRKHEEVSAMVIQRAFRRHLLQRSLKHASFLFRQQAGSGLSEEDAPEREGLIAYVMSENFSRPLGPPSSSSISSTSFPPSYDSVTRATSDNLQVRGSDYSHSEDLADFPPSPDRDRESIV

CC[C@H](C)[C@@H]1NC(=O)[C@@H]2CSSC[C@@H]3NC(=O)[C@H](C(C)C)NC(=O)[C@H](CC(C)C)NC(=O)[C@H](CC(N)=O)NC(=O)[C@@H]4CCCN4C(=O)[C@H](CCCNC(=N)N)NC(=O)[C@H](CSSC[C@H](NC(=O)[C@@H](N)CC(=O)O)C(=O)N[C@@H](CC(C)C)C(=O)NCC(=O)N[C@@H](Cc4ccccc4)C(=O)N[C@@H](CCSC)C(=O)N[C@@H](CCCNC(=N)N)C(=O)N[C@@H](CCCCN)C(=O)N2)NC(=O)[C@H](CSSC[C@@H](C(=O)N[C@@H](CCCCN)C(=O)N[C@@H](Cc2ccc(O)cc2)C(=O)N[C@H](C(=O)N[C@@H](Cc2ccccc2)C(N)=O)C(C)C)NC(=O)[C@H](Cc2c[nH]c4ccccc24)NC(=O)[C@H](CCCCN)NC(=O)[C@H](Cc2cnc[nH]2)NC(=O)[C@H](C)NC(=O)[C@H](CCCNC(=N)N)NC(=O)[C@H](CO)NC3=O)NC(=O)[C@H](CCCCN)NC(=O)[C@H](CC(=O)O)NC(=O)[C@H](CC(N)=O)NC(=O)[C@H](CC(=O)O)NC(=O)[C@@H]2CCCN2C1=O [compound 10] (H-DCLGFMRKCIPDNDKCCRPNLVCSRAHKWCKYVF-NH2; disulfide 2-17, 9-23, 16-30) showed an IC50 (hNav1.3; Table 22, use, […]) of 170 nM, an IC50 (hNav1.7; Table 22, IonWorks Quattro, use, […], read-out: IWQ Use Nav1.7) of 250 nM and an IC50 (hNav1.5; IWQ Use Nav1.5 (μM)) of 10.5 µM.

In the case of CC[C@H](C)[C@@H]1NC(=O)[C@@H]2CSSC[C@@H]3NC(=O)[C@H](C(C)C)NC(=O)[C@H](CC(C)C)NC(=O)[C@H](CC(N)=O)NC(=O)[C@@H]4CCCN4C(=O)[C@H](CCCNC(=N)N)NC(=O)[C@H](CSSC[C@H](NC(=O)[C@@H](N)CC(=O)O)C(=O)N[C@@H](CC(C)C)C(=O)NCC(=O)N[C@@H](Cc4ccccc4)C(=O)N[C@@H](CCSC)C(=O)N[C@@H](CCCNC(=N)N)C(=O)N[C@@H](CCCCN)C(=O)N2)NC(=O)[C@H](CSSC[C@@H](C(=O)N[C@@H](CCCCN)C(=O)N[C@@H](Cc2ccc(O)cc2)C(=O)N[C@H](C(=O)N[C@@H](Cc2ccccc2)C(N)=O)C(C)C)NC(=O)[C@H](Cc2c[nH]c4ccccc24)NC(=O)[C@H](CCCCN)NC(=O)[C@H](C)NC(=O)[C@H]([C@@H](C)O)NC(=O)[C@H](CCCNC(=N)N)NC(=O)[C@H](CO)NC3=O)NC(=O)[C@H](CCCCN)NC(=O)[C@H](CC(=O)O)NC(=O)[C@H](CC(N)=O)NC(=O)[C@H](CC(=O)O)NC(=O)[C@@H]2CCCN2C1=O [compound 11] (H-DCLGFMRKCIPDNDKCCRPNLVCSRTAKWCKYVF-NH2; disulfide 2-17, 9-23, 16-30), the IC50 (hNav1.3; Table 23, use, […]) is reported as 1150 nM, the IC50 (hNav1.7) is reported as 950 nM and the IC50 (hNav1.5; [1]) is reported as 14.7 µM.

With CC[C@H](C)[C@@H]1NC(=O)[C@@H]2CSSC[C@@H]3NC(=O)[C@H](C(C)C)NC(=O)[C@H](CC(C)C)NC(=O)[C@H](CC(N)=O)NC(=O)[C@@H]4CCCN4C(=O)[C@H](CCCNC(=N)N)NC(=O)[C@H](CSSC[C@H](NC(=O)[C@@H](N)CC(=O)O)C(=O)N[C@@H](CC(C)C)C(=O)NCC(=O)N[C@@H](Cc4ccccc4)C(=O)N[C@@H](CCSC)C(=O)N[C@@H](CCCNC(=N)N)C(=O)N[C@@H](CCCCN)C(=O)N2)NC(=O)[C@H](CSSC[C@@H](C(=O)N[C@@H](CCCCN)C(=O)N[C@@H](Cc2ccc(O)cc2)C(=O)N[C@H](C(=O)N[C@@H](Cc2ccccc2)C(N)=O)C(C)C)NC(=O)[C@H](Cc2c[nH]c4ccccc24)NC(=O)[C@H](C)NC(=O)[C@H](Cc2cnc[nH]2)NC(=O)[C@H]([C@@H](C)O)NC(=O)[C@H](CCCNC(=N)N)NC(=O)[C@H](CO)NC3=O)NC(=O)[C@H](CCCCN)NC(=O)[C@H](CC(=O)O)NC(=O)[C@H](CC(N)=O)NC(=O)[C@H](CC(=O)O)NC(=O)[C@@H]2CCCN2C1=O [compound 12] (H-DCLGFMRKCIPDNDKCCRPNLVCSRTHAWCKYVF-NH2; disulfide 2-17, 9-23, 16-30) the IC50 (hNav1.3; Table 23, use, […]) was 660 nM, the IC50 (hNav1.7) was 360 nM and the IC50 (hNav1.5; [1]) was 17.3 µM.

Work on CC[C@H](C)[C@@H]1NC(=O)[C@@H]2CSSC[C@@H]3NC(=O)[C@H](C(C)C)NC(=O)[C@H](CC(C)C)NC(=O)[C@H](CC(N)=O)NC(=O)[C@@H]4CCCN4C(=O)[C@H](CCCNC(=N)N)NC(=O)[C@H](CSSC[C@H](NC(=O)[C@@H](N)CC(=O)O)C(=O)N[C@@H](CC(C)C)C(=O)NCC(=O)N[C@@H](Cc4ccccc4)C(=O)N[C@@H](CCSC)C(=O)N[C@@H](CCCNC(=N)N)C(=O)N[C@@H](CCCCN)C(=O)N2)NC(=O)[C@H](CSSC[C@@H](C(=O)N[C@@H](C)C(=O)N[C@@H](Cc2ccc(O)cc2)C(=O)N[C@H](C(=O)N[C@@H](Cc2ccccc2)C(N)=O)C(C)C)NC(=O)[C@H](Cc2c[nH]c4ccccc24)NC(=O)[C@H](CCCCN)NC(=O)[C@H](Cc2cnc[nH]2)NC(=O)[C@H]([C@@H](C)O)NC(=O)[C@H](CCCNC(=N)N)NC(=O)[C@H](CO)NC3=O)NC(=O)[C@H](CCCCN)NC(=O)[C@H](CC(=O)O)NC(=O)[C@H](CC(N)=O)NC(=O)[C@H](CC(=O)O)NC(=O)[C@@H]2CCCN2C1=O [compound 13] (H-DCLGFMRKCIPDNDKCCRPNLVCSRTHKWCAYVF-NH2; disulfide 2-17, 9-23, 16-30) yielded an IC50 (hNav1.3; Table 25, use, […]) of 7390 nM, an IC50 (hNav1.7) of 7940 nM and an IC50 (hNav1.5; IWQ Use Nav1.5 (μM)) of 14.5 µM.

CC[C@H](C)[C@@H]1NC(=O)[C@@H]2CSSC[C@@H]3NC(=O)[C@H](C(C)C)NC(=O)[C@H](CC(C)C)NC(=O)[C@H](CC(N)=O)NC(=O)[C@@H]4CCCN4C(=O)[C@H](CCCNC(=N)N)NC(=O)[C@H](CSSC[C@H](NC(=O)[C@@H](N)CC(=O)O)C(=O)N[C@@H](CC(C)C)C(=O)NCC(=O)N[C@@H](Cc4ccccc4)C(=O)N[C@@H](CCSC)C(=O)N[C@@H](CCCNC(=N)N)C(=O)N[C@@H](CCCCN)C(=O)N2)NC(=O)[C@H](CSSC[C@@H](C(=O)N[C@@H](CCCCN)C(=O)N[C@@H](Cc2ccc(O)cc2)C(=O)N[C@@H](C)C(=O)N[C@@H](Cc2ccccc2)C(N)=O)NC(=O)[C@H](Cc2c[nH]c4ccccc24)NC(=O)[C@H](CCCCN)NC(=O)[C@H](Cc2cnc[nH]2)NC(=O)[C@H]([C@@H](C)O)NC(=O)[C@H](CCCNC(=N)N)NC(=O)[C@H](CO)NC3=O)NC(=O)[C@H](CCCCN)NC(=O)[C@H](CC(=O)O)NC(=O)[C@H](CC(N)=O)NC(=O)[C@H](CC(=O)O)NC(=O)[C@@H]2CCCN2C1=O [compound 15] (H-DCLGFMRKCIPDNDKCCRPNLVCSRTHKWCKYAF-NH2; disulfide 2-17, 9-23, 16-30) gave an IC50 (hNav1.3; Table 26, use, […]) of 350 nM, an IC50 (hNav1.7; Table 26, IonWorks Quattro, use, […], read-out: IWQ Use Nav1.7) of 330 nM and an IC50 (hNav1.5; Table 26, IonWorks Quattro, use, […], read-out: IWQ Use Nav1.5) of 18.6 µM.

For CC[C@H](C)[C@@H]1NC(=O)[C@@H]2CSSC[C@@H]3NC(=O)[C@H](C(C)C)NC(=O)[C@H](CC(C)C)NC(=O)[C@H](CC(N)=O)NC(=O)[C@@H]4CCCN4C(=O)[C@H](CCCNC(=N)N)NC(=O)[C@H](CSSC[C@H](NC(=O)[C@@H](N)CC(=O)O)C(=O)N[C@@H](CC(C)C)C(=O)NCC(=O)N[C@@H](Cc4ccccc4)C(=O)N[C@@H](CCSC)C(=O)N[C@@H](CCCNC(=N)N)C(=O)N[C@@H](CCCCN)C(=O)N2)NC(=O)[C@H](CSSC[C@@H](C(=O)N[C@@H](CCCCN)C(=O)N[C@@H](Cc2ccc(O)cc2)C(=O)N[C@H](C(=O)N[C@@H](Cc2ccccc2)C(=O)N[C@@H](C)C(N)=O)C(C)C)NC(=O)[C@H](Cc2c[nH]c4ccccc24)NC(=O)[C@H](CCCCN)NC(=O)[C@H](Cc2c[nH]cn2)NC(=O)[C@H]([C@@H](C)O)NC(=O)[C@H](CCCNC(=N)N)NC(=O)[C@H](CO)NC3=O)NC(=O)[C@H](CCCCN)NC(=O)[C@H](CC(=O)O)NC(=O)[C@H](CC(N)=O)NC(=O)[C@H](CC(=O)O)NC(=O)[C@@H]2CCCN2C1=O [compound 16], the IC50 (hNav1.3; use-dependent, […]) was 260 nM, the IC50 (hNav1.7; IonWorks Quattro, use-dependent, […], read-out: IWQ Use Nav1.7 (μm)) was 410 nM and the IC50 (hNav1.5; IonWorks Quattro, use-dependent, […], read-out: IWQ Use Nav1.5) was 14.2 µM.

For CC[C@H](C)[C@@H]1NC(=O)[C@@H]2CSSC[C@@H]3NC(=O)[C@H](C(C)C)NC(=O)[C@H](CC(C)C)NC(=O)[C@H](CC(N)=O)NC(=O)[C@@H]4CCCN4C(=O)[C@H](CCCNC(=N)N)NC(=O)[C@H](CSSC[C@H](NC(=O)[C@@H](N)CC(=O)O)C(=O)N[C@@H](CC(C)C)C(=O)NCC(=O)N[C@@H](Cc4ccccc4)C(=O)N[C@@H](CCSC)C(=O)N[C@@H](CCCNC(=N)N)C(=O)N[C@@H](CCCCN)C(=O)N2)NC(=O)[C@H](CSSC[C@@H](C(=O)N[C@@H](CCCCN)C(=O)N[C@@H](Cc2ccc(O)cc2)C(=O)N[C@H](C(=O)N[C@@H](Cc2ccccc2)C(N)=O)C(C)C)NC(=O)[C@H](Cc2c[nH]c4ccccc24)NC(=O)[C@H](CCCCN)NC(=O)[C@H](Cc2cnc[nH]2)NC(=O)[C@H]([C@@H](C)O)NC(=O)[C@H](CCCNC(=N)N)NC(=O)[C@H](CO)NC3=O)NC(=O)[C@H](CCCCN)NC(=O)[C@H](CC(=O)O)NC(=O)[C@H](CC(N)=O)NC(=O)[C@H](CCC(=O)O)NC(=O)[C@@H]2CCCN2C1=O [compound 26] (H-DCLGFMRKCIPENDKCCRPNLVCSRTHKWCKYVF-NH2; disulfide 2-17, 9-23, 16-30), the IC50 (hNav1.3; Use) was 190 nM, the IC50 (hNav1.7) was 260 nM and the IC50 (hNav1.5; IonWorks Quattro, Use, read-out: IWQ Use Nav1.5) was 6.45 µM.
